Tested on: Guinea pigs
Assay: Electrostimulation test (antiarrhythmic effect; voltage needed to induce extrasystoles/arrhythmias by electrostimulation of the right ventricle)
Format: in vivo
Settings: anaesthetized Guinea pigs (Urethane 1.2 g/kg i.p.), substances given intraduodenally 30 min before stimulation; 6 treated vs 6 control animals; * = statistically significant p<0.05; dose not given
Description: According to the method described by […]. and PAPP, G J., (Naunyn-Schmiedebergs Arch. exp. Path. Pharmak. 245, 70 (1963), arrhythmias are induced in Guinea pigs by electostimulation of the right ventricle of the heart. The animals are anaesthetized with Urethane (1.2 g/kg i.p.) and artificially respired before a needle electrode is inserted in the right ventricle of the heart. Substances are given intraduodenally 30 min before the stimulation. The voltage needed for induction of extrasystoles in 6 control animals (n=6) is compared with that required for induction of arrhythmias in 6 treated animals (n=6). The difference is statistically evaluated by the unpaired t-test (STUDENT). This method was used to evaluate the compounds of the present invention. In Tables 1 and 2, ^* means statistically significant p<0.05.

| Compound | % Increase in Test Voltage |
| --- | --- |
| Cc1cc(C)c(S(=O)(=O)NCC(O)CN2CC(C)CC2C)c(C)c1 (stereo not shown) [(6)] | 12.1* % |
| Cc1cc(C)c(S(=O)(=O)NC(C)CCCN2CCCCC2C)c(C)c1 (stereo not shown) [(1)] | 89.4* % |
| CC(CN1CCCCC1)NS(=O)(=O)c1cc(Cl)c(Cl)cc1Cl.Cl (stereo not shown) [(2), 1-[2-(2,4,5-trichlorobenzenesulphonamido)-propyl] piperidinium chloride] | 29.6* % |
| Cc1cc(C)c(S(=O)(=O)NCC(O)CN2CCCC2)c(C)c1 (stereo not shown) [(5)] | 29.5* % |
| CC1CCCCN1CC(O)CNS(=O)(=O)c1cc(Cl)c(Cl)cc1Cl (stereo not shown) [(4)] | 60.6* % |
| Cc1cc(C)c(S(=O)(=O)NCC(O)CN2CCCCC2C)c(C)c1 (stereo not shown) [(7)] | 13.4* % |
| Cc1cc(C)c(S(=O)(=O)NC(C)CCCN2CC(C)CC2C)c(C)c1 (stereo not shown) [(3)] | 87.7* % |

— patent EP0107350A1, “Sulfon amides” (Beecham Wuelfing GmbH & Co KG, priority 1982, dated 1984)
